Test [1] relates to pS6K1 (p-p70 S6 Kinase (Thr389)) in MCF-7 cells. In words: AlphaLISA Ultra pS6K1 Assay. It is filed as cell-based. The settings on record: Homo sapiens, 1.5 h; MCF7 cells, 90 min. As to the method: AlphaLISA Ultra pS6K1 Assay
1. Seed MCF-7 cells in Corning 3701 plate and incubate for 20˜24 hour. 12,000˜16,000 cells will be seeded in 36 μL medium per well.
2. Change the culture medium with fresh medium and incubate for another 2 hours.
3. Add 12 μL (4×) compounds into the cell plate by HAMILTON. Final DMSO concentration is 0.5%. Incubate for 90 minutes.
4. Aspirate […] by HAMILTON, 10 μL rest per well.
5. Add 10 μL 2× lysis buffer using HAMILTON; total volume in wells is 20 μL. Allow cells to shake for 30 min. Cover plate by plastic foil and store plate at −80° C. up to analysis.
6. Thaw cell lysate at RT and transfer 10 μL lysate to assay plate (Optiplate-384).
7. Add 5 μL acceptor beads into assay plate and incubation for 2 hours
8. Add 5 μL donor beads and incubation for 2 hours
9. Count the plate by EnSpire Multimode Plate Reader
On the technique in general: In Alpha technology, singlet oxygen from a donor bead excites a nearby acceptor bead.

The test system of the next test is mTORC1 over mTORC2. As to the kind of experiment: mTORC1 selectivity over mTORC2 at 24 hrs (Western blot based pS6K1 and pAKT assay). It is filed as cell-based. The settings on record: 24 hrs. On the procedure:
Western Blot Based pS6K1 and pAKT Assay at 24 and 48 Hour Timepoints
1. Seed six well plate with 500,000 PC3 cells per well and incubate for 20˜24 hour.
2. Add compounds into the cell plate. Incubate for 24 to 48 hours.
4. Plate is placed on ice and the media is removed via aspiration. The wells are washed with 1 mL of 1× PBS and then fully aspirated.
5. 110 μL of 1% Triton Lysis Buffer is added and each well is scraped vigorously.
6. Cell homogenates are transferred to 1.5 mL eppendorf tubes on ice and spun down at 4° C. for 10 minutes at 10,000 rpm.
9. The membranes were washed 3× with TBS-T with a 5 minute incubation between each wash then incubated with secondary antibody (LiCor IRDye 800 Donkey Anti Rabbit) for at least 30 minutes.
10. The membranes were washed 3× with TBS-T with a 5 minute incubation between each wash.
11. The gels were then incubated for 5 minutes with PBS at room temperature then imaged using a Li-Cor.
“N/A” stands for “not assayed.”

pIC50: −log10 of the molar value.

Usually pIC50 stands for the IC50 on a negative log10 scale, so that one unit is a factor of ten. A high value points to a low IC50.

For `CNC(=O)CCCO[C@@H]1C[C@@H]2CC[C@@H](C)[C@@](O)(O2)C(=O)C(=O)N2CCCC[C@H]2C(=O)O[C@H]([C@H](C)C[C@@H]2CC[C@@H](OCCO)[C@H](OC)C2)CC(=O)[C@H](C)/C=C(\C)[C@@H](O)[C@@H](OC)C(=O)[C@H](C)C[C@H](C)/C=C/C=C/C=C/1C` [I-59, 4-[[(22E,24E,26E,27E,34R,35S,36R,37R,39S,41S,43R,44S,45R,46R,56R)-45, 56-dihydroxy-44-[(1R)-2-[(1S,3R,4R)-4-(2-hydroxyethoxy)-3-methoxy-cyclohexyl]-1-methyl-ethyl]-46-methoxy-34, 35,36,37,47,48-hexamethyl-49,50,51,52,53-pentaoxo-68,69-dioxa-58-azatricyclohexatriaconta-22, 24,26(47),27(48)-tetraen-43-yl]oxy]-N-methyl-butanamide], the pIC50 in test [1] is ≤ 7.00. For the same compound, the “mTORC1 selective @ 24 hrs” value in the test on mTORC1 over mTORC2 was “YES”.
Consider `CO[C@@H]1C[C@H](C[C@@H](C)[C@@H]2CC(=O)[C@H](C)/C=C(\C)[C@@H](O)[C@@H](OC)C(=O)[C@H](C)C[C@H](C)/C=C/C=C/C=C(\C)[C@@H](OCC3COCCOCCOCCO3)C[C@@H]3CC[C@@H](C)[C@@](O)(O3)C(=O)C(=O)N3CCCC[C@H]3C(=O)O2)CC[C@H]1O` (stereo partly drawn) [I-112, (28E,30E,32E,33E,36R,37S,38R,39R,41S,43S,45S,46S,48R,49R,58R)-48, 58-dihydroxy-46-[(1R)-2-[(1S,3R,4R)-4-hydroxy-3-methoxy-cyclohexyl]-1-methyl-ethyl]-49-methoxy-36, 37,38,39,50,51-hexamethyl-45-(1,4,7,10-tetraoxacyclododec-2-ylmethoxy)-72, 73-dioxa-59-azatricyclohexatriaconta-28,30,32(50),33(51)-tetraene-52, 53,54,55,56-pentone], for which the pIC50 in test [1] was 9.00 to 10.00. In the test on mTORC1 over mTORC2, the “mTORC1 selective @ 24 hrs” value was “YES”.
`CO[C@@H]1C[C@H](C[C@@H](C)[C@@H]2CC(=O)[C@H](C)/C=C(\C)[C@@H](O)[C@@H](OC)C(=O)[C@H](C)C[C@H](C)/C=C/C=C/C=C(\C)[C@H](OCCCC(=O)N(C)C)C[C@@H]3CC[C@@H](C)[C@@](O)(O3)C(=O)C(=O)N3CCCC[C@H]3C(=O)O2)CC[C@H]1OCCO` [I-61, 4-[[(23E,25E,27E,28E,35R,36S,37R,38R,40S,42S,44R,45S,46R,47R,57R)-46, 57-dihydroxy-45-[(1R)-2-[(1S,3R,4R)-4-(2-hydroxyethoxy)-3-methoxy-cyclohexyl]-1-methyl-ethyl]-47-methoxy-35, 36,37,38,48,49-hexamethyl-50,51,52,53,54-pentaoxo-69,70-dioxa-58-azatricyclohexatriaconta-23, 25,27(48),28(49)-tetraen-44-yl]oxy]-N,N-dimethyl-butanamide]: the pIC50 in test [1] is 8.00 to 9.00. Further, the “mTORC1 selective @ 24 hrs” value with mTORC1 over mTORC2 was “YES”.
In test [1], `CO[C@@H]1C[C@H](C[C@@H](C)[C@@H]2CC(=O)[C@H](C)/C=C(\C)[C@@H](O)[C@@H](OC)C(=O)[C@H](C)C[C@H](C)/C=C/C=C/C=C(\C)[C@@H](OCC3COCCOCCOCCOCCO3)C[C@@H]3CC[C@@H](C)[C@@](O)(O3)C(=O)C(=O)N3CCCC[C@H]3C(=O)O2)CC[C@H]1O` (stereo partly drawn) [I-108, (30E, 32E,34E,35E,38R,39S,40R,41R,43S,45S,47S,48S,50R,51R,60R)-50, 60-dihydroxy-48-[(1R)-2-[(1S,3R,4R)-4-hydroxy-3-methoxy-cyclohexyl]-1-methyl-ethyl]-51-methoxy-38, 39,40,41,52,53-hexamethyl-47-(1,4,7,10,13-pentaoxacyclopentadec-2-ylmethoxy)-75, 76-dioxa-61-azatricyclohexatriaconta-30, 32,34(52),35(53)-tetraene-54,55,56,57,58-pentone] had a pIC50 of 9.00 to 10.00. For the same compound, the “mTORC1 selective @ 24 hrs” value in the test on mTORC1 over mTORC2 is reported as “YES”.
In the case of `CNC(=O)CCCO[C@H]1C[C@@H]2CC[C@@H](C)[C@@](O)(O2)C(=O)C(=O)N2CCCC[C@H]2C(=O)O[C@H]([C@H](C)C[C@@H]2CC[C@@H](OCCO)[C@H](OC)C2)CC(=O)[C@H](C)/C=C(\C)[C@@H](O)[C@@H](OC)C(=O)[C@H](C)C[C@H](C)/C=C/C=C/C=C/1C` [I-60, 4-[[(22E, 24E,26E,27E,34R,35S,36R,37R,39S,41S,43S,44S,45R,46R,56R)-45, 56-dihydroxy-44-[(1R)-2-[(1S,3R,4R)-4-(2-hydroxyethoxy)-3-methoxy-cyclohexyl]-1-methyl-ethyl]-46-methoxy-34, 35,36,37,47,48-hexamethyl-49,50,51,52,53-pentaoxo-68,69-dioxa-58-azatricyclohexatriaconta-22, 24,26(47),27(48)-tetraen-43-yl]oxy]-N-methyl-butanamide], in test [1], the pIC50 was 8.00 to 9.00. The “mTORC1 selective @ 24 hrs” value in the test with mTORC1 over mTORC2 is listed as “YES”.
Take `CO[C@@H]1CC(C[C@@H](C)C2CC(=O)[C@H](C)/C=C(\C)[C@@H](O)[C@@H](OC)C(=O)[C@H](C)C[C@H](C)/C=C/C=C/C=C(\C)C(OCCCC(=O)N(C)C)C[C@@H]3CC[C@@H](C)[C@@](O)(O3)C(=O)C(=O)N3CCCC[C@H]3C(=O)O2)CC[C@H]1OCCO` (stereo partly drawn) [I-69, 4-[[(23E, 25E,27E,28E,35R,36S,37R,38R,40S,42S,45S,46R,47R,57R)-46,57-dihydroxy-45-[(1R)-2-[(1S, 3R,4R)-4-(2-hydroxyethoxy)-3-methoxy-cyclohexyl]-1-methyl-ethyl]-47-methoxy-35, 36,37,38,48,49-hexamethyl-50,51,52,53,54-pentaoxo-69,70-dioxa-58-azatricyclohexatriaconta-23, 25,27(48),28(49)-tetraen-44-yl]oxy]-N,N-dimethyl-butanamide]: the pIC50 in test [1] was 9.00 to 10.00. In the test on mTORC1 over mTORC2, the “mTORC1 selective @ 24 hrs” value is “YES”.
In the same order, the values of `CNC(=O)CCCOC1C[C@@H]2CC[C@@H](C)[C@@](O)(O2)C(=O)C(=O)N2CCCC[C@H]2C(=O)OC([C@H](C)CC2CC[C@@H](OCCO)[C@H](OC)C2)CC(=O)[C@H](C)/C=C(\C)[C@@H](O)[C@@H](OC)C(=O)[C@H](C)C[C@H](C)/C=C/C=C/C=C/1C` (stereo partly drawn) [I-68, 4-[[(22E,24E,26E,27E,34R,35S,36R,37R,39S,41S,44S,45R,46R, 56R)-45,56-dihydroxy-44-[(1R)-2-[(1S,3R,4R)-4-(2-hydroxyethoxy)-3-methoxy-cyclohexyl]-1-methyl-ethyl]-46-methoxy-34, 35,36,37,47,48-hexamethyl-49,50,51,52,53-pentaoxo-68,69-dioxa-58-azatricyclohexatriaconta-22, 24,26(47),27(48)-tetraen-43-yl]oxy]-N-methyl-butanamide] are 8.00 to 9.00 and “YES”.
In turn, `CO[C@@H]1CC(C[C@@H](C)C2CC(=O)[C@H](C)/C=C(\C)[C@@H](O)[C@@H](OC)C(=O)[C@H](C)C[C@H](C)/C=C/C=C/C=C(\C)[C@H](OCCOCC(F)(F)F)C[C@@H]3CC[C@@H](C)[C@@](O)(O3)C(=O)C(=O)N3CCCC[C@H]3C(=O)O2)CC[C@H]1OCCO` (stereo partly drawn) [I-70, (21E,23E,25E,26E,33R,34S,35R,36R,38S,40S,42S,43R,44R,45R,54R)-44, 54-dihydroxy-43-[(1R)-2-[(1S,3R,4R)-4-(2-hydroxyethoxy)-3-methoxy-cyclohexyl]-1-methyl-ethyl]-45-methoxy-33, 34,35,36,46,47-hexamethyl-42-[2-(2,2,2-trifluoroethoxy)ethoxy]-65, 66-dioxa-56-azatricyclohexatriaconta-21,23,25(46),26(47)-tetraene-48,49,50,51,52-pentone] gave a pIC50 in test [1] of 8.00 to 9.00. The “mTORC1 selective @ 24 hrs” value in the test on mTORC1 over mTORC2 is “YES”.
